Experiments:
HeLa = experiment: Cytotoxicity against human HeLa cells assessed as inhibition of cell proliferation measured after 48 hrs by MTS assay; assay type: functional, cell-based
RAW264.7 [1] = experiment: Antiinflammatory activity against mouse RAW264.7 cells assessed as inhibition of LPS-induced nitric oxide overproduction pretreated with LPS for 24 hrs followed by overnight incubation with compound by Griess assay; assay type: functional, cell-based
RAW264.7 [2] = experiment: Cytotoxicity against mouse RAW264.7 cells assessed as cell proliferation at 10 ug/ml pretreated with LPS for 24 hrs followed by overnight incubation with compound by MTS assay; assay type: cell-based

Structure (SMILES): C/C=C(\C)C(=O)O[C@H]1C[C@@]23CO[C@@H](C[C@](C)(/C=C4/OC(=O)C(COC)=C41)O2)[C@@H]3O
- IC50 (HeLa): > 10 µM

Structure (SMILES): C/C=C(\C)C(=O)O[C@H]1C[C@@]23CO[C@@H](C[C@](C)(C[C@@]4(OC)OC(=O)C(COC(C)=O)=C14)O2)[C@@H]3O
- IC50 (HeLa): > 10 µM

Structure (SMILES): C=C(C)C(=O)O[C@H]1C[C@@H](C)[C@@]2(O)CC[C@@](C)(/C=C3/OC(=O)C(COC(C)=O)=C31)O2
- IC50 (HeLa): 35 µM
- IC50 (RAW264.7 [1]): 23 µM
- Activity (RAW264.7 [2]): Non-Toxic

Structure (SMILES): C/C=C(\C)C(=O)O[C@H]1C[C@@H](C)[C@@]2(O)CC[C@@](C)(/C=C3/OC(=O)C(COC(C)=O)=C31)O2
- IC50 (HeLa): 32 µM
- IC50 (RAW264.7 [1]): 21 µM
- Activity (RAW264.7 [2]): Non-Toxic

Structure (SMILES): C=C(C)C(=O)O[C@H]1C[C@@]23CO[C@@H](C[C@](C)(/C=C4/OC(=O)C(COC(C)=O)=C41)O2)[C@@H]3O
- IC50 (HeLa): > 10 µM

Structure (SMILES): C=C(C)C(=O)O[C@H]1C[C@@]23CO[C@@H](C[C@](C)(C[C@@]4(OC)OC(=O)C(COC(C)=O)=C14)O2)[C@@H]3O
- IC50 (HeLa): > 10 µM

Structure (SMILES): C=C(C)C(=O)O[C@H]1C[C@@]23CO[C@@H](C[C@](C)(/C=C4/OC(=O)C(COC)=C41)O2)[C@@H]3O
- IC50 (HeLa): > 10 µM

Structure (SMILES): C/C=C(\C)C(=O)O[C@H]1C[C@@]23CO[C@@H](C[C@](C)(/C=C4/OC(=O)C(COC(C)=O)=C41)O2)[C@@H]3O
- IC50 (HeLa): > 10 µM

Structure (SMILES): Cc1c2ccncc2c(C)c2c1[nH]c1ccccc12 [ELLIPTECINE]
- IC50 (HeLa): 2 µM

— ChEMBL document CHEMBL4334477, “Bioactive Sesquiterpene Lactones Isolated from the Whole Plants of Vernonia cinerea” (J Nat Prod, 2019)
